Measurements taken from patent publication US20050084456A1, “Functionalized particles” (priority 2003, published 2005).

Experiment: Distribution of intravenously administered FITC-labeled NIPA nanoparticles in uveal tissue
Settings: 12 hours after intravenous administration; FIG. 3

## fluorescein-isothiocyanate [FITC]
  presence / accumulation in uveal tissue: no accumulation
